Results taken from US20250034216A1, “STEREOSELECTIVE COVALENT LIGANDS FOR ONCOGENIC AND IMMUNOLOGICAL PROTEINS” (The Scripps Research Institute, priority 2021, published 2025).

Columns and labels:
Test in all cases: IA-DTB cysteine engagement
Assay type in all cases: binding
Details in all cases: 22Rv1 cells, 20 μM probe, 1 h, relative to DMSO
SPATA2_C41 = molecular target: T1, SPATA2_C41 (Homo sapiens, UniProt Q9UM82)
T1 construct: endogenous in cells; host or cells: 22Rv1
T1 sequence (Q9UM82 1-520): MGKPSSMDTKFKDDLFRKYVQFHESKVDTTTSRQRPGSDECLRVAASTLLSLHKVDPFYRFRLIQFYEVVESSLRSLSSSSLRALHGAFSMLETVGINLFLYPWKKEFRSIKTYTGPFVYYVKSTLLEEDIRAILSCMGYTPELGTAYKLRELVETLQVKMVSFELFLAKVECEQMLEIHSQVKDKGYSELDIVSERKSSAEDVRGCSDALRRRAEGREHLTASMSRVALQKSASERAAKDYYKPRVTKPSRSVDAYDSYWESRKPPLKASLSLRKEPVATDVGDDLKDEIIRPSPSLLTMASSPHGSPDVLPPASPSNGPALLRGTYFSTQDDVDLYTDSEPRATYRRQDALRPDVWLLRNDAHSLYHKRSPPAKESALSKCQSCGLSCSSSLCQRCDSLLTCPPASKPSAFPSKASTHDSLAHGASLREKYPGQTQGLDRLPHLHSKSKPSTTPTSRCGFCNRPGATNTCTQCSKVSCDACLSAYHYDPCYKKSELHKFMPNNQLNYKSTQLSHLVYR
How it was run: (§1)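 Cells were treated in situ with electrophilic probes, then lysed, and the lysates (2 mg/mL protein) were labeled with IA-DTB for 1 h at ambient temperature. After reduction, alkylation and trypsin digestion, labeled peptides were streptavidin-enriched, TMT-labeled and fractionated. Engagement ratios are probe vs DMSO reporter intensities, averaged across replicates.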

CPT1A_C96 = molecular target: T2, CPT1A_C96 (Homo sapiens, UniProt P50416)
T2 construct: endogenous in cells; host or cells: 22Rv1
T2 sequence (P50416 1-773): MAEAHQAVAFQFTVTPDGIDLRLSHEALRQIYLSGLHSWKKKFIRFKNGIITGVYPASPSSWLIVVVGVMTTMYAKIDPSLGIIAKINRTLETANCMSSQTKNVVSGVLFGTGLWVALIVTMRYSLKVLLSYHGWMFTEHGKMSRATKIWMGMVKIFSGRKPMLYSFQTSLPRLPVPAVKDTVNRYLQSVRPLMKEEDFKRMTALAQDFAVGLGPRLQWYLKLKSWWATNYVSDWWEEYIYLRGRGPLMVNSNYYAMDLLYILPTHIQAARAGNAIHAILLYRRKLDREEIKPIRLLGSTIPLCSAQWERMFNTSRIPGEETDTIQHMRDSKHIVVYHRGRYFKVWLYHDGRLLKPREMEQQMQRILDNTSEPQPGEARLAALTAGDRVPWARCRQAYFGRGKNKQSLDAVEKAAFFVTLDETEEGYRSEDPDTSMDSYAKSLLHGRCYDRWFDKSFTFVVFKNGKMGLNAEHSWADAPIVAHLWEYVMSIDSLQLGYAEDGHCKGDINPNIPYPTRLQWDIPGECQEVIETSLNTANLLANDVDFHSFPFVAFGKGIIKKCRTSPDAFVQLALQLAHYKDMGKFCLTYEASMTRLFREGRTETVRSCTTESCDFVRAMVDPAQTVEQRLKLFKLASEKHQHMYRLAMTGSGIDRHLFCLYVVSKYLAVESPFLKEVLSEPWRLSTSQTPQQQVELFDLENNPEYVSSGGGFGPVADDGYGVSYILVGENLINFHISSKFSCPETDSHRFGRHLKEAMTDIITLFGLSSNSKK
How it was run: as §1

ABCA2_C2385 = molecular target: T3, ABCA2_C2385 (Homo sapiens, UniProt Q9BZC7)
T3 construct: endogenous in cells; host or cells: 22Rv1
T3 sequence (Q9BZC7 whole entry): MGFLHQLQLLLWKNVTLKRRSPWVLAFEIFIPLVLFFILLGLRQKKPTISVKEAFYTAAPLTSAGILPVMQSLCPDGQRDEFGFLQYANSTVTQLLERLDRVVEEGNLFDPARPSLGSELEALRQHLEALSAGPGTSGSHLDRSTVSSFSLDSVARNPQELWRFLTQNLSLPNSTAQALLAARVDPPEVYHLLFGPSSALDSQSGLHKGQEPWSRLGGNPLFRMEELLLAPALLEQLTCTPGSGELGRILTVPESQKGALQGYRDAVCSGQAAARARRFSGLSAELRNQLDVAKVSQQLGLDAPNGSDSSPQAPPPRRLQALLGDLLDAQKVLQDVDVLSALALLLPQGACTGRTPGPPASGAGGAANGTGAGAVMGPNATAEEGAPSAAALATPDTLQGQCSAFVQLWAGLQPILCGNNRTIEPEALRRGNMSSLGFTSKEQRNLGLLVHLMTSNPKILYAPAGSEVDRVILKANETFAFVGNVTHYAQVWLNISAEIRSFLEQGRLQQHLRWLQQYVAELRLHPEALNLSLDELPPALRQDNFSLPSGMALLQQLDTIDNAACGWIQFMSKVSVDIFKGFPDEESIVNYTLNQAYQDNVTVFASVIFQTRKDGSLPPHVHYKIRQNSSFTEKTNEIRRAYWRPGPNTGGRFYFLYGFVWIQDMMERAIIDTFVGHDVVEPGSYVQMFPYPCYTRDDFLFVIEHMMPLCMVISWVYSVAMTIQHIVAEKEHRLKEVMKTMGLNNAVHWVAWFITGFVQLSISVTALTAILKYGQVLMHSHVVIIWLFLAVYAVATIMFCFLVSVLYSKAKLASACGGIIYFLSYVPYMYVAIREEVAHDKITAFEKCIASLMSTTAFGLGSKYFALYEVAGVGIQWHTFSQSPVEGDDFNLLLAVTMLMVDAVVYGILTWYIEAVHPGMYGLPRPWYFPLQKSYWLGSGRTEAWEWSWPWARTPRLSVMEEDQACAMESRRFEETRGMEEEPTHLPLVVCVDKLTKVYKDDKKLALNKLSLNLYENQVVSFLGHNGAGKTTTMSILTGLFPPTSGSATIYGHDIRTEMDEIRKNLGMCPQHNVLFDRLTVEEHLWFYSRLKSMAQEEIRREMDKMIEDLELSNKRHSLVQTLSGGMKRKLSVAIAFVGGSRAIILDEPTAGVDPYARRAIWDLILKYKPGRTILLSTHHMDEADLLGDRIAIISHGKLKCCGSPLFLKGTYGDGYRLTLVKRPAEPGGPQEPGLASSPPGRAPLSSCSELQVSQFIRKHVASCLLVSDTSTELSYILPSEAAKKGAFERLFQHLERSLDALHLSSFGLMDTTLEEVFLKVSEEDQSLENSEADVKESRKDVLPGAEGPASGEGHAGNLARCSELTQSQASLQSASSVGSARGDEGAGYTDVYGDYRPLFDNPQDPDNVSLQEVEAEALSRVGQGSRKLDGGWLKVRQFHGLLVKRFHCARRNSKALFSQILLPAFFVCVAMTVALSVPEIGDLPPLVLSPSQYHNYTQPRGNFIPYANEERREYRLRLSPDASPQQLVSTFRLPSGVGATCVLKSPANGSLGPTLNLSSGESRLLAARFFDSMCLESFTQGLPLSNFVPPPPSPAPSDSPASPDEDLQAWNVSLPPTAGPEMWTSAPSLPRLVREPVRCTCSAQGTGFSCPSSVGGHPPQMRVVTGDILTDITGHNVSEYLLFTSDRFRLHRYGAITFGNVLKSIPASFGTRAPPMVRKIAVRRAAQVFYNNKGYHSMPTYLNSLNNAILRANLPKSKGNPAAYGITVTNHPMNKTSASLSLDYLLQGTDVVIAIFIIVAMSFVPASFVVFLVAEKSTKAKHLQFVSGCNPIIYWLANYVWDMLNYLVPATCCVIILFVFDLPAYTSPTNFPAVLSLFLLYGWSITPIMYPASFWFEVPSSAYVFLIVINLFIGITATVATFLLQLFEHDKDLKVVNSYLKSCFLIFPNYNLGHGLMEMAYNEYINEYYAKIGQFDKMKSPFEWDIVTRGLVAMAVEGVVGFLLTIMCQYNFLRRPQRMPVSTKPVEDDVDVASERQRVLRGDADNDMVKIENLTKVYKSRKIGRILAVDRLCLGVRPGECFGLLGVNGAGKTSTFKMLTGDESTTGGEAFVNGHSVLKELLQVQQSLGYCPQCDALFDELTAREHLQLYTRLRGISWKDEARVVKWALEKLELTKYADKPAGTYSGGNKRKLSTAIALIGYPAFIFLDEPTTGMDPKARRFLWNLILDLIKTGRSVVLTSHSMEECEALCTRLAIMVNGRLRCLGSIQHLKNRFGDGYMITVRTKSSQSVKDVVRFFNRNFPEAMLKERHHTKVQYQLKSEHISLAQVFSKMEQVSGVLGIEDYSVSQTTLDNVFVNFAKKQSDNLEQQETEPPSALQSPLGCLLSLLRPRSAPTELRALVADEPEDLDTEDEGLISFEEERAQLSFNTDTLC
How it was run: as §1

DHX9_C608 = molecular target: T4, DHX9_C608 (Homo sapiens, UniProt Q08211)
T4 construct: endogenous in cells; host or cells: 22Rv1
T4 sequence (Q08211 whole entry): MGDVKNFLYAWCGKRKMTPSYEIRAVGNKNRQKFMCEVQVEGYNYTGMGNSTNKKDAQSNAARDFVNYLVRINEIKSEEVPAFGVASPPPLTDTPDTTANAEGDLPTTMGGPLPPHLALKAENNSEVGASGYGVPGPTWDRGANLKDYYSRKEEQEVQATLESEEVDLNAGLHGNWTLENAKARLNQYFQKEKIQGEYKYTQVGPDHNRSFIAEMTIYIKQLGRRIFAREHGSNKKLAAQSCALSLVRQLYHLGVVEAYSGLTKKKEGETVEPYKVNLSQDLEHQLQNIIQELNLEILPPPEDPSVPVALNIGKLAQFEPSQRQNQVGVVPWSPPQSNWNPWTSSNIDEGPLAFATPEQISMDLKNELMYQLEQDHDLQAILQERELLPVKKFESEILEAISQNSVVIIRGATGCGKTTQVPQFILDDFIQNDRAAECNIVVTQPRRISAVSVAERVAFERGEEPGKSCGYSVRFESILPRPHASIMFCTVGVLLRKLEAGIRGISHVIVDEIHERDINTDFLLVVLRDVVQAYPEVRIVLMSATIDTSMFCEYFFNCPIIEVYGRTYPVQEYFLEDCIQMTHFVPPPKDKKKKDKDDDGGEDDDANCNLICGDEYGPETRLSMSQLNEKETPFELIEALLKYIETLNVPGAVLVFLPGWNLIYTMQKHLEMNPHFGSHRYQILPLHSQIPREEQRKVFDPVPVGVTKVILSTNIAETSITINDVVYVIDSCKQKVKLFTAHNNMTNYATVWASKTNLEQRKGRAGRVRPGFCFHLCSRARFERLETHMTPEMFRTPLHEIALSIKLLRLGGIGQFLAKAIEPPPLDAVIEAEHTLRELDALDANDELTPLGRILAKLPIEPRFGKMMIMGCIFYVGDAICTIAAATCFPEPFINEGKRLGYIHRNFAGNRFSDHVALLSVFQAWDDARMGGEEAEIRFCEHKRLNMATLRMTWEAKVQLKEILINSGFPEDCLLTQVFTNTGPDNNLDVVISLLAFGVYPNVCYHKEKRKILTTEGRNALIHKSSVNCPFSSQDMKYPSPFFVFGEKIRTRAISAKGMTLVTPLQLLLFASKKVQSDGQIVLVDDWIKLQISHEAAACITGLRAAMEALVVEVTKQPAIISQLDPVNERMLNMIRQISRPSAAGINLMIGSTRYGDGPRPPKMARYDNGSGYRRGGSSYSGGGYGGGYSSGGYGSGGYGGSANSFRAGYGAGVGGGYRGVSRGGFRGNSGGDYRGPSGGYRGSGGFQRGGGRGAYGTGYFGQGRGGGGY
How it was run: as §1

Row | SMILES | % engagement SPATA2_C41 (SPATA2_C41) | % engagement CPT1A_C96 (CPT1A_C96) | % engagement ABCA2_C2385 (ABCA2_C2385) | % engagement DHX9_C608 (DHX9_C608)
1 | C=CC(=O)N1C[C@H](c2ccc(Br)cc2)[C@H]1C(=O)Nc1cccc2cccnc12 [MY-3A, (2S,3S)-1-acryloyl-3-(4-bromophenyl)-N-(quinolin-8-yl)azetidine-2-carboxamide] | 24.5% | 89.25% | 42.5% | 16%
2 | C=CC(=O)N1C[C@@H](c2ccc(Br)cc2)[C@H]1C(=O)Nc1cccc2cccnc12 [MY-1A, (2S,3R)-1-acryloyl-3-(4-bromophenyl)-N-(quinolin-8-yl)azetidine-2-carboxamide] | 58% | 87% | 33% | −10.5%
3 | C=CC(=O)N1C[C@H](c2ccc(Br)cc2)[C@@H]1C(=O)Nc1cccc2cccnc12 [MY-1B, (2R,3S)-1-acryloyl-3-(4-bromophenyl)-N-(quinolin-8-yl)azetidine-2-carboxamide] | 91.75% | 84.75% | 78% | −11%
4 | C=CC(=O)N1C[C@H](c2ccc(Br)cc2)[C@H]1C(=O)Nc1cccc2cccnc12 [MY-3B, (2S,3S)-1-acryloyl-3-(4-bromophenyl)-N-(quinolin-8-yl)azetidine-2-carboxamide] | 29.5% | 93.5% | 72.5% | 69.5%
